In the supplement of paper PMC10307832:

Key:
IDH-C35 + Tozasertib = compound: Cc1ccccc1C(C(=O)NC1CCCCC1)N(C(=O)Cn1ccnc1C)c1cccc(F)c1 [IDH-C35] + Cc1cc(Nc2cc(N3CCN(C)CC3)nc(Sc3ccc(NC(=O)C4CC4)cc3)n2)n[nH]1 [Tozasertib] (partner 0.1 µM); test: relative viability (nuclei count vs DMSO), 5 days (fraction); higher = more cells survive
Method in brief: (§1)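 Each reported value is a median over duplicate plates. It expresses relative viability: treated-well nuclei count divided by vehicle-well nuclei count. Lung cancer cell lines in 1536-well plates were dosed by pin tool a day after seeding, alone with one drug or with a fixed anchor-drug dose plus five library-drug doses (not always all listed) in √10 steps, and nuclei were counted after 5 days.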

[1] = compound: CC1=C(C(=NN1)C)CC2=C(C3=C(S2)N(C(=O)N(C3=O)C)CC(C)C)C(=O)N4C[C@@H](CO4)O + COc1cc2c(Oc3ccc(NC(=O)C4(C(=O)Nc5ccc(F)cc5)CC4)cc3F)ccnc2cc1OCCCN1CCOCC1 [Foretinib] (partner 0.25 µM); test: as above
Method in brief: as §1

Cell Line	relative viability (IDH-C35 + Tozasertib; first compound 0.08 µM)	relative viability (IDH-C35 + Tozasertib; first compound 0.253 µM)	relative viability (IDH-C35 + Tozasertib; first compound 0.8 µM)	relative viability (IDH-C35 + Tozasertib; first compound 2.53 µM)	relative viability (IDH-C35 + Tozasertib; first compound 8 µM)	relative viability ([1]; first compound 0.0025 µM)	relative viability ([1]; first compound 0.007906 µM)	relative viability ([1]; first compound 0.025 µM)	relative viability ([1]; first compound 0.07906 µM)	relative viability ([1]; first compound 0.25 µM)
NCI-H1648	0.567	0.499	0.511	0.525	0.541					
LCLC-97TM1	0.397	0.189	0.184	0.196	0.231	0.97	1.01	0.935	0.775	0.934
NCI-H596	1.01	0.866	0.937		0.788	1.08	1.12	0.691	0.702	0.99
NCI-H727	0.49	0.61	0.647	0.606	0.558	1.15	1.13	0.882	0.876	0.897
H3255	0.59	0.6	0.522	0.511	0.703	1.03	0.968	0.784	0.802	0.775
SK-MES-1	0.927	0.86	0.88	0.863	0.761	0.901	1.06	1.02	0.954	0.991
NCI-H1437	0.411	0.443	0.405	0.413	0.366	1.26	1.29	1.18	1.3	1.24
NCI-H2342	0.482	0.54	0.483	0.494	0.442	1.14	1.04	0.893	0.998	1.01
LU99A	0.281	0.255	0.257	0.296	0.257	0.901	0.943	0.766	0.768	0.747
SW 900	0.51	0.645	0.585	0.615	0.508	1.01	1.06	0.671	0.834	1.06
HCC-827	0.4	0.394	0.388	0.428	0.433	1.02	1.09	1.01	1.02	1.02
LK-2	0.157	0.197	0.178	0.184	0.203	1.04	1.12	0.981	0.928	1.16
HCC-366	0.109	0.128	0.179		0.0826	0.918	0.932	0.905	0.771	0.958
BEN	0.5	0.429	0.515	0.474	0.552	0.666	0.629	0.577	0.661	0.596
NCI-H23	0.325	0.399	0.414	0.313	0.406	1.05	0.992	0.965	1.07	1.16
NCI-H1395	0.723	0.831	0.735	0.728	0.774	1.11	1.04	0.804	0.812	0.824
A549						1.03	1.02	0.906	1	1.1
NCI-H1563						0.933	0.969	0.967	0.933	0.936
